Experimental findings from patent US9758477B2, “Sulfamoylbenzamide derivatives as antiviral agents against HBV infection” (priority 2011, dated 2017) are described below.

Data set [1] in a line: Cytotoxicity in AML12HBV10 cells, MTT assay. The data set is classed as cell-based, murine. Conditions: mouse; AML12HBV10 cells, 48 hours, MTT; read-out: CC50 (cellular toxicity). As to the method: (§1) Determination of cytotoxicity of compounds of the disclosure in AML12HBV10 cells: To determine the cytotoxicity of the compounds, AML12HBV10 cells were seeded into 96-well plates at a density of 2×10^4 cells per well and cultured in DMEM/F12 media with 10% fetal bovine serum in the absence of tetracycline to allow pgRNA transcription and HBV DNA replication. One day after seeding, cells were left untreated or treated with a serial dilution of testing compounds, ranging from 50 μM to 0.39 μM, for 48 hours. The cell viability was measured by a MTT assay, following procedure provided by the manufacturer (Promega). The cytotoxicity of a compound was expressed as the concentration of compound that reduces the viability of the cells by 50% (CC50).
(Tetrazolium dyes change colour on reduction, which living cells bring about.)

In another data set the test system is AML12HBV10 cells. Put plainly: Cytotoxicity in AML12HBV10 cells, MTT assay. The class given is cell-based, murine. Conditions: Table 10, AML12HBV10 cells, unit inferred; read-out: AML12HBV10 CC50. The method, then:
as §1

The next data set deals with HBV. Briefly: Antiviral activity in HepDES19 cells, core-associated HBV DNA by Southern blot hybridization. The data set is classed as cell-based. The following applies: Hepatitis B virus, 144 h, Table 10, HepDES19 cells, 6 days, unit inferred; for EC90: HBV DNA reduced by 90%; for EC50: Southern blot. As to the method: FIG. 2 and Table 10, in human hepatoma-derived cell lines: To further confirm the antiviral activity of the compounds of the disclosure against HBV in human hepatocyte-derived cells, HepDES19 cells, a human hepatoma cell line supporting HBV replication in a tetracycline inducible manner (Guo et al., 2007), seeded into 12-well plates at a density of 5×10^5 cells per well and cultured in DMEM/F12 media with 10% fetal bovine serum and 1 μg/ml tetracycline. Two days after seeding, the cells were mock-treated or treated with a serial dilution of compounds of the disclosure, ranging from 10 μM to 0.018 μM, for 6 days in the absence of tetracycline. Upon the completion of treatment, cells were lysed by adding into each well of the 12-well plates 0.5 ml of lysis buffer containing 10 mM Tris-HCl (pH 8.0), 1 mM EDTA, 1% NP40 and 2% sucrose and incubating at 37° C. for 10 minutes. Cell debris and nuclei were removed by centrifugation and the supernatant was mixed with 130 μl of 35% polyethylene glycol (PEG) 8000 containing 1.5 M NaCl. After 1 hour incubation in ice, viral nucleocapsids were pelleted by centrifugation at 6,000×g for 5 min at 4° C., followed by 1 hour digestion at 37° C. in 400 μl of digestion buffer containing 0.5 mg/ml pronase (Calbiochem), 0.5% SDS, 150 mM NaCl, 25 mM Tris-HCl (pH 8.0) and 10 mM EDTA. The digestion mixture was extracted twice with phenol and DNA was precipitated with ethanol, dissolved in TE buffer (10 mM Tris-HCl, pH 8.0; 0.1 mM EDTA). One half of the DNA sample from each well was resolved by electrophoresis into a 1.5% agarose gel. The gel was then subjected to denaturation in a solution containing 0.5 M NaOH and 1.5 M NaCl, followed by neutralization in a buffer containing 1 M Tris-HCl (pH7.4) and 1.5 M NaCl. DNA was then blotted onto Hybond-XL membrane (GE Health care) in 20×SSC buffer. The amounts of cytoplasmic HBV core-associated HBV DNA were determined by Southern blot hybridization and the antiviral efficacy of a compound was expressed as its concentration that reduce the amount of HBV DNA by 50% (EC50) or 90% (EC90).

Another data set deals with HBV mRNA. Put plainly: Analysis of HBV mRNA by Northern blot in AML12HBV10 cells. The data set is classed as cell-based, Hepatitis B virus (HBV). Conditions: 2 days, FIG. 3 panel A. The method, then:
(§2) To obtain mechanistic insight of the compounds of present invention against HBV, AML12HBV10 cells cultured in the 12-well plates were treated with a series of concentrations of DVR-1, DVR-56 or DVR-23 for two days in the absence of tetracycline (Guo et al., 2007). As positive controls, the cells were also treated with Bay41-4109 (5 μM) or AT-61 (25 μM), the known HBV nucleocapsid assembly effectors that either bind to HBV core protein dimmer to misdirect its interaction and prevent capsid formation (Bay41-4109) (Deres et al., 2003: Stray and Zlotnick, 2006), or interact with a core assembly intermediate and promote the formation of empty capsids (AT-61) (Feld et al., 2007; Katen et al., King et al., 1998). The amounts of intracellular viral mRNA, encapsidated pgRNA, capsids and nucleocapsid-associated HBV DNA were analyzed with the methods detailed below.
Procedure for analysis of HBV mRNA: Upon the completion of treatment, total cellular RNA was extracted with TRIzol reagents (Invitrogen). Five micrograms of total RNA was resolved in 1.5% agarose gel containing 2.2 M formaldehyde and transferred onto Hybond-XL membrane in 20×SSC buffer. The amounts of HBV mRNA were determined by Northern blot hybridization with an alpha-^32P-UTP labeled riboprobe specific for plus strand of HBV genome.

In another data set the test system is encapsidated pgRNA. Briefly: Encapsidated pgRNA by Northern blot in AML12HBV10 cells. The class given is cell-based, Hepatitis B virus (HBV). The following applies: 2 days, FIG. 3 panel C, Bay41-4109 5 μM, AT-61 25 μM. The method, then: as §2
Determination of encapsidated pgRNA: AML12HBV10 cells were lysed by addition of 600 μl of lysis buffer (50 mM Tris-HCl [pH 7.5], 1 mM EDTA, 150 mM NaCl, 1% NP-40) into each well of 12-well plates. The nuclei were removed by centrifugation at 5,000 g for 10 minutes. One-half of the sample was mixed with 6 U of micrococcal nuclease (Pharmacia) and 15 μl of 100 mM CaCl2 and incubated for 15 minutes at 37° C. to digest free nucleic acids. The reaction was stopped with 6 μl of 0.5 M EDTA, and capsids were precipitated by adding 125 μl of 35% polyethylene glycol 8000 in 1.75 M NaCl to the reaction and incubating in ice for 30 minutes, followed by centrifugation at 6,000 g for 10 minutes at 4° C. Pellets were re-suspended in 50 μl of TNE buffer (10 mM Tris-HCl [pH 8], 100 mM NaCl, 1 mM EDTA), pgRNA was extracted by the addition of 1 ml of Trizol reagent. The encapsidated pgRNA were electrophoresed through a 2.2 M formaldehyde-1% agarose gel, transferred to a nylon membrane, and immobilized by UV cross-linking (Stratagene). Hybridization was performed with an alpha-^32P-UTP labeled riboprobe specific for plus strand of HBV genome.

Molecules are shown by their SMILES. Some results are limits rather than exact numbers.

For orientation: CC50 means the concentration that lowers cell viability or growth by half. By EC90 is commonly meant the point of the concentration-response curve where the effect stands at 90%. Lower therefore signals an effect from little substance. As usually defined, the EC50 is the concentration giving half of the maximal effect. A higher EC50 goes with a less potent agent. For the compound `CCC(C)NS(=O)(=O)c1ccc(F)c(C(=O)Nc2ccc(F)c(F)c2)c1` (stereo not drawn) [DVR-23, 5-sec-butylsulfamoyl-N-(3,4-difluoro-phenyl)-2-fluoro-benzamide], the CC50 at 48 h in data set [1] is above 50000 nM. Also, the CC50 in the data set with AML12HBV10 cells is above 50000 nM. In the data set on HBV, the EC90 turned out to be 860 nM and the EC50 turned out to be 280 nM. The “amount of viral mRNA” value in the data set with HBV mRNA is “did not affect”. Moreover, the “level of encapsidated pgRNA” value with encapsidated pgRNA is on record as “dose-dependently reduced”.
For the compound `O=C(Nc1ccc(F)c(F)c1)c1cc(S(=O)(=O)NC2CCCC2)ccc1F` [DVR-56, 5-cyclopentylsulfamoyl-N-(3,4-difluoro-phenyl)-2-fluoro-benzamide], the cytotoxic concentration (CC50) at 48 h in data set [1] was above 50000 nM. Also, in the data set on AML12HBV10 cells, the CC50 was above 50000 nM. In the data set with HBV, this compound came in with an EC90 of 1850 nM and an EC50 of 420 nM. In the data set on HBV mRNA, the “amount of viral mRNA” value is given as “did not affect”. Also, the “level of encapsidated pgRNA” value in the data set on encapsidated pgRNA is reported as “dose-dependently reduced”.
